Marks after values point to notes of the source that are not given here.
tested on: wild-type (WT) Mtb; assay: not given; format: cell-based, Mycobacterium tuberculosis; conditions: not given

| Compound | IC50 [µM] |
| --- | --- |
| CCCCCCC#Cc1cncc(-c2nnc(SCc3ccc([N+](=O)[O-])o3)n2C)c1 [drawing 61] | 0.55 |
| CCCCCCC#Cc1cncc(-c2nnc(SCc3ccc(C(F)(F)F)cc3)n2C)c1 [drawing 55 R = CF3] | 44 |

tested on: not listed separately; assay: PBS solubility; conditions: highest concentration with no detectable precipitate; phosphate-buffered saline

| Compound | PBS solubility [µM] | PBS solubility (μM) |
| --- | --- | --- |
| CCCCCCC#Cc1cncc(-c2nnc(SCc3cc([N+](=O)[O-])cc([N+](=O)[O-])c3)n2C2CC2)c1.Cl | 3.1 | – |
| CCCCCCC#Cc1cncc(-c2nnc(SCc3cc([N+](=O)[O-])cc([N+](=O)[O-])c3)n2C)c1 [drawing 140] | <1.6 | – |
| COC(=O)[C@H]1[C@H]2C[C@@H]3c4[nH]c5cc(OC)ccc5c4CCN3C[C@H]2C[C@@H](OC(=O)c2cc(OC)c(OC)c(OC)c2)[C@@H]1OC [reserpine, reference compound] | – | 7.8^[d] μM |
| CCCCCCC#Cc1cncc(-c2nnc(SCc3ccc([N+](=O)[O-])o3)n2C2CC2)c1 [drawing 141] | 3.1 | – |

tested on: not listed separately; assay: in vitro; conditions: human, plasma

| Compound | fraction unbound |
| --- | --- |
| CCCCCCC#Cc1cncc(-c2nnc(SCc3ccc([N+](=O)[O-])o3)n2C2CC2)c1 [drawing 141] | < 0.001 |

tested on: not listed separately; assay: Plasma stability, human; conditions: n = 1

| Compound | plasma stability t1/2 (min), human |
| --- | --- |
| CCCCCCC#Cc1cncc(-c2nnc(SCc3cc([N+](=O)[O-])cc([N+](=O)[O-])c3)n2C2CC2)c1.Cl | >480; >480 min |
| CCCCCCC#Cc1cncc(-c2nnc(SCc3cc([N+](=O)[O-])cc([N+](=O)[O-])c3)n2C)c1 [drawing 140] | >480; >480 min |
| CCCCCCC#Cc1cncc(-c2nnc(SCc3ccc([N+](=O)[O-])o3)n2C2CC2)c1 [drawing 141] | 259 min |

tested on: Vero cells; assay: CC50 cytotoxicity, Promega CellTiter-Glo Luminescent Cell Viability Assay; format: cell-based, African green monkey; conditions: 72-hour incubation, CellTiter-Glo, n = 3
Experimental: (§1) Cytotoxicity assays were conducted to measure toxicity of compounds at single concentration in Vero TMPRSS2 cells by using quantitation of ATP to indicate metabolically active cells. Vero cells (derived from African Green Monkey kidney epithelial tissue) were grown in Dulbecco's Modified Eagle Medium (DMEM) supplemented with 10% fetal bovine serum (FBS), 10 mM HEPES buffered saline, and 2 mM L-glutamine. 5,000 cells per well were seeded into a 96-well plate containing two-fold titrations of compounds. The concentration of DMSO was maintained at 0.5% for all wells to avoid toxicity. The plates were incubated for 72 hours, at which point they were acclimatized to room temperature for 30 minutes. 25 μL of the substrate/buffer solution from the Promega CellTiter-Glo Luminescent Cell Viability Assay kit was added to each well. The plates were shaken at a low orbital speed for 3 minutes and let rest at room temperature for 10 minutes, after which luminescence was measured using a BioTek Synergy H1 Microplate Reader H1M. The positive control was defined as wells containing cells without compounds.
(§2) Percent viability was input into PRISM GraphPad to calculate CC50 values by plotting as a non-linear regression curve.
(§3) Given the toxicity of an initial hit compound in mammalian cells and the potential concern for toxicity more generally with nitro-containing drugs, the selected compounds were also examined for toxicity in a mammalian cell line using Promega's Cell Titer-Glo assay to assess cellular ATP levels as a read-out of viability. […] A selectivity index (SI) was then calculated for each compound by determining the ratio of the CC50 in Vero cells to the MABA IC50 in Mtb, where the larger the SI, the safer the compound is in eukaryotic cells relative to its effective dose. […] Therefore, not only were the SAR efforts successful in identifying compounds with increased potency against Mtb, but also, the toxicity concerns of the original hit compound were overcome.

| Compound | CC50 [µM] |
| --- | --- |
| Cn1c(SCc2ccc(Cl)cc2)nnc1-c1cncc(C#Cc2ccccc2)c1 [drawing 138] | > 100 |
| CCCCCCC#Cc1cncc(-c2nnc(SCc3cc([N+](=O)[O-])cc([N+](=O)[O-])c3)n2C)c1 [drawing 133] | > 100 |
| CCCCCCC#Cc1cncc(-c2nnc(SCc3ccc(C#N)cc3)n2C)c1 [drawing 130] | > 100 |

same assay, conditions: ratio of CC50 in Vero cells to MABA IC50 in Mtb

| Compound | selectivity index (SI) |
| --- | --- |
| CCCCCCC#Cc1cncc(-c2nnc(SCc3ccc([N+](=O)[O-])cc3)n2C)c1 [drawing 131] | 1.3 |
| CCCCCCC#Cc1cncc(-c2nnc(SCc3ccc(Cl)cc3)n2C)c1 [drawing 129] | 9.3 |
| Cn1c(SCc2ccc(Cl)cc2)nnc1-c1cncc(C#Cc2ccccc2)c1 [drawing 138] | >46 |
| CCCCCCC#Cc1cncc(-c2nnc(SCc3ccc([N+](=O)[O-])o3)n2C)c1 [drawing 135] | 314 |
| CCCCCCC#Cc1cncc(-c2nnc(SCc3ccc(Cl)cc3)n2C2CC2)c1 [drawing 136] | 4.8 |
| CCCCCCC#Cc1cncc(-c2nnc(SCc3cc([N+](=O)[O-])cc([N+](=O)[O-])c3)n2C)c1 [drawing 133] | >294 |
| CCCCCCC#Cc1cncc(-c2nnc(SCc3ccc([N+](=O)[O-])cc3[N+](=O)[O-])n2C)c1 | 27 |
| CCCCCCC#Cc1cncc(-c2nnc(SCc3ccc([N+](=O)[O-])o3)n2C2CC2)c1 [drawing 137] | 165 |
| CCCCCCC#Cc1cncc(-c2nnc(SCc3ccc(Cl)c(F)c3)[nH]2)c1 | >23 |
| CCCCCCC#Cc1cncc(-c2nnc(SCc3ccc(C#N)cc3)n2C)c1 [drawing 130] | >3.7 |

tested on: not listed separately; assay: as above; format: cell-based, African green monkey; conditions: African green monkey, Vero cells; 72-hour incubation, CellTiter-Glo, n = 3
Experimental: as §1, §2, §3

| Compound | CC50 at 72 hour [µM] |
| --- | --- |
| CCCCCCC#Cc1cncc(-c2nnc(SCc3ccc([N+](=O)[O-])cc3)n2C)c1 [drawing 131] | 27 ± 5.4 |
| CCCCCCC#Cc1cncc(-c2nnc(SCc3ccc(Cl)cc3)n2C)c1 [drawing 129] | 50 ± 5.5 |
| CCCCCCC#Cc1cncc(-c2nnc(SCc3ccc([N+](=O)[O-])o3)n2C)c1 [drawing 135] | 33 ± 2.9 |
| CCCCCCC#Cc1cncc(-c2nnc(SCc3ccc(Cl)cc3)n2C2CC2)c1 [drawing 136] | 25 ± 2.5 |
| CCCCCCC#Cc1cncc(-c2nnc(SCc3ccc([N+](=O)[O-])cc3[N+](=O)[O-])n2C)c1 | 28 ± 1 |
| CCCCCCC#Cc1cncc(-c2nnc(SCc3ccc([N+](=O)[O-])o3)n2C2CC2)c1 [drawing 137] | 7.8 ± 0.48 |
| CCCCCCC#Cc1cncc(-c2nnc(SCc3ccc(Cl)c(F)c3)[nH]2)c1 | > 125 |

tested on: wild-type (WT) Mtb Erdman strain; assay: MABA, Mtb Erdman strain; format: cell-based; conditions: Mycobacterium tuberculosis, read-out: IC50 S.D. (μM) Mtb Erdman strain

| Compound | IC50 [µM] |
| --- | --- |
| CCCCCCC#Cc1cncc(-c2nnc(SCc3ccc([N+](=O)[O-])cc3)n2C)c1 [drawing 131] | 22 ± 13 |
| CCCCCCC#Cc1cncc(-c2nnc(SCc3ccc(Cl)cc3)n2C)c1 [drawing 129] | 5.4 ± 0.5 |
| Cn1c(SCc2ccc(Cl)cc2)nnc1-c1cncc(C#Cc2ccccc2)c1 [drawing 138] | 2.2 ± 0.4 |
| CCCCCCC#Cc1cncc(-c2nnc(SCc3ccc([N+](=O)[O-])o3)n2C)c1 [drawing 135] | 0.1 ± 0.01 |
| CCCCCCC#Cc1cncc(-c2nnc(SCc3ccc(Cl)cc3)n2C2CC2)c1 [drawing 136] | 5.1 ± 0.7 |
| CCCCCCC#Cc1cncc(-c2nnc(SCc3cc([N+](=O)[O-])cc([N+](=O)[O-])c3)n2C)c1 [drawing 133] | 0.34 ± 0.01 |
| CCCCCCC#Cc1cncc(-c2nnc(SCc3ccc([N+](=O)[O-])cc3[N+](=O)[O-])n2C)c1 | 1.1 ± 0.1 |
| CCCCCCC#Cc1cncc(-c2nnc(SCc3ccc([N+](=O)[O-])o3)n2C2CC2)c1 [drawing 137] | 0.05 ± 0.003 |
| CCCCCCC#Cc1cncc(-c2nnc(SCc3ccc(Cl)c(F)c3)[nH]2)c1 | 5.4 ± 0.03 |
| CCCCCCC#Cc1cncc(-c2nnc(SCc3ccc(C#N)cc3)n2C)c1 [drawing 130] | 27 ± 0.4 |

same assay, conditions: Mycobacterium tuberculosis, read-out: IC50 ± S.D. (μM) Erdman

| Compound | IC50 [µM] |
| --- | --- |
| CCCCCCC#Cc1cncc(-c2nnc(SCc3ccc([N+](=O)[O-])cc3)n2C)c1 [drawing 94] | 2.9 ± 0.45 |
| CCCCCCC#Cc1cncc(-c2nnc(SCc3ccc(C#N)cc3)n2C)c1 [drawing 93] | 5.3 ± 1.17 |
| NNC(=O)c1ccncc1 [INH, isoniazid, reference compound] | 0.18 ± 0.014 |
| CCCCCCC#Cc1cncc(-c2nnc(SCc3ccc(Cl)cc3)n2C)c1 [drawing 92] | 1.5 ± 0.19 |
| CCCCCCC#Cc1cncc(-c2nnc(SCc3cc([N+](=O)[O-])cc([N+](=O)[O-])c3)n2C)c1 [drawing 95] | 0.17 ± 0.016 |

tested on: not listed separately; assay: Plasma stability, mouse; conditions: n = 1

| Compound | plasma stability t1/2 (min), mouse |
| --- | --- |
| CCCCCCC#Cc1cncc(-c2nnc(SCc3cc([N+](=O)[O-])cc([N+](=O)[O-])c3)n2C2CC2)c1.Cl | >480; >480 min |
| CCCCCCC#Cc1cncc(-c2nnc(SCc3cc([N+](=O)[O-])cc([N+](=O)[O-])c3)n2C)c1 [drawing 140] | >480; >480 min |
| CCCCCCC#Cc1cncc(-c2nnc(SCc3ccc([N+](=O)[O-])o3)n2C2CC2)c1 [drawing 141] | 238 min |

tested on: not listed separately; assay: Liver microsomal stability, mouse; conditions: mouse liver microsomes, n = 1

| Compound | liver microsomal stability t1/2 (min), mouse [min] | liver microsomal stability CLint (μL/min/mg), mouse [µL/min/mg] |
| --- | --- | --- |
| CCCCCCC#Cc1cncc(-c2nnc(SCc3cc([N+](=O)[O-])cc([N+](=O)[O-])c3)n2C2CC2)c1.Cl | 5.9 | – |
| CCCCCCC#Cc1cncc(-c2nnc(SCc3cc([N+](=O)[O-])cc([N+](=O)[O-])c3)n2C)c1 [drawing 140] | 4.8 | 287 |
| CCCCCCC#Cc1cncc(-c2nnc(SCc3ccc([N+](=O)[O-])o3)n2C2CC2)c1 [drawing 141] | 2.5 | – |

tested on: not listed separately; assay: Liver microsomal stability, human; conditions: human liver microsomes, n = 1

| Compound | liver microsomal stability t1/2 (min), human [min] | liver microsomal stability CLint (μL/min/mg), human [µL/min/mg] |
| --- | --- | --- |
| CCCCCCC#Cc1cncc(-c2nnc(SCc3cc([N+](=O)[O-])cc([N+](=O)[O-])c3)n2C2CC2)c1.Cl | 3.0 | – |
| CCCCCCC#Cc1cncc(-c2nnc(SCc3cc([N+](=O)[O-])cc([N+](=O)[O-])c3)n2C)c1 [drawing 140] | 3.9 | 357 |
| CCCCCCC#Cc1cncc(-c2nnc(SCc3ccc([N+](=O)[O-])o3)n2C2CC2)c1 [drawing 141] | 1.9 | – |

tested on: not listed separately; assay: Human plasma protein binding; conditions: human, plasma

| Compound | fraction unbound |
| --- | --- |
| CCCCCCC#Cc1cncc(-c2nnc(SCc3cc([N+](=O)[O-])cc([N+](=O)[O-])c3)n2C)c1 [drawing 140] | < 0.001 |

tested on: human plasma protein; assay: Human plasma protein binding; conditions: human plasma protein binding

| Compound | plasma protein binding [%] |
| --- | --- |
| CC(=O)CC(c1ccccc1)c1c(O)c2ccccc2oc1=O (centres unmarked) [warfarin] | >99.9 |

tested on: not given; assay: not given; conditions: microsomes

| Compound | liver microsomal stability CLint (μL/min/mg), human [µL/min/mg] |
| --- | --- |
| CCCCCCC#Cc1cncc(-c2nnc(SCc3ccc([N+](=O)[O-])o3)n2C2CC2)c1 [drawing 141] | 470 |

tested on: wild-type (WT) Mtb HN878 strain; assay: MABA, Mtb HN878 strain; format: cell-based; conditions: Mycobacterium tuberculosis; read-out: IC50 ± S.D. (μM) HN878

| Compound | IC50 [µM] |
| --- | --- |
| CCCCCCC#Cc1cncc(-c2nnc(SCc3ccc([N+](=O)[O-])cc3)n2C)c1 [drawing 94] | 1.3 ± 0.15 |
| CCCCCCC#Cc1cncc(-c2nnc(SCc3ccc(C#N)cc3)n2C)c1 [drawing 93] | 2.3 ± 0.2 |
| NNC(=O)c1ccncc1 [INH, isoniazid, reference compound] | 0.12 ± 0.00051 |
| CCCCCCC#Cc1cncc(-c2nnc(SCc3ccc(Cl)cc3)n2C)c1 [drawing 92] | 0.85 ± 0.043 |
| CCCCCCC#Cc1cncc(-c2nnc(SCc3cc([N+](=O)[O-])cc([N+](=O)[O-])c3)n2C)c1 [drawing 95] | 0.061 ± 0.012 |

tested on: not given; assay: not given; conditions: microsomes; remark: another data set of the same source

| Compound | liver microsomal stability CLint (μL/min/mg), mouse [µL/min/mg] |
| --- | --- |
| CCCCCCC#Cc1cncc(-c2nnc(SCc3ccc([N+](=O)[O-])o3)n2C2CC2)c1 [drawing 141] | 546 |

— patent US20250136574A1, “SELECTIVE AGENTS TARGETING MYCOBACTERIUM TUBERCULOSIS” (priority 2022, published 2025)
